target: T1, human TRH-DE (Homo sapiens, UniProt Q9UKU6); assay: TRH-DE inhibition test (RapidFire MS measurement of product Cyclo (His-Pro)); format: biochemical; conditions: membrane fraction of Expi 293 cells expressing human TRH-DE; 10 μM TRH substrate; room temperature, 2 hours; 16-point concentration test
T1 construct: expressed in transfected cells; host or cells: Expi 293 cells (transient expression), membrane fraction
T1 sequence (Q9UKU6 1-1069): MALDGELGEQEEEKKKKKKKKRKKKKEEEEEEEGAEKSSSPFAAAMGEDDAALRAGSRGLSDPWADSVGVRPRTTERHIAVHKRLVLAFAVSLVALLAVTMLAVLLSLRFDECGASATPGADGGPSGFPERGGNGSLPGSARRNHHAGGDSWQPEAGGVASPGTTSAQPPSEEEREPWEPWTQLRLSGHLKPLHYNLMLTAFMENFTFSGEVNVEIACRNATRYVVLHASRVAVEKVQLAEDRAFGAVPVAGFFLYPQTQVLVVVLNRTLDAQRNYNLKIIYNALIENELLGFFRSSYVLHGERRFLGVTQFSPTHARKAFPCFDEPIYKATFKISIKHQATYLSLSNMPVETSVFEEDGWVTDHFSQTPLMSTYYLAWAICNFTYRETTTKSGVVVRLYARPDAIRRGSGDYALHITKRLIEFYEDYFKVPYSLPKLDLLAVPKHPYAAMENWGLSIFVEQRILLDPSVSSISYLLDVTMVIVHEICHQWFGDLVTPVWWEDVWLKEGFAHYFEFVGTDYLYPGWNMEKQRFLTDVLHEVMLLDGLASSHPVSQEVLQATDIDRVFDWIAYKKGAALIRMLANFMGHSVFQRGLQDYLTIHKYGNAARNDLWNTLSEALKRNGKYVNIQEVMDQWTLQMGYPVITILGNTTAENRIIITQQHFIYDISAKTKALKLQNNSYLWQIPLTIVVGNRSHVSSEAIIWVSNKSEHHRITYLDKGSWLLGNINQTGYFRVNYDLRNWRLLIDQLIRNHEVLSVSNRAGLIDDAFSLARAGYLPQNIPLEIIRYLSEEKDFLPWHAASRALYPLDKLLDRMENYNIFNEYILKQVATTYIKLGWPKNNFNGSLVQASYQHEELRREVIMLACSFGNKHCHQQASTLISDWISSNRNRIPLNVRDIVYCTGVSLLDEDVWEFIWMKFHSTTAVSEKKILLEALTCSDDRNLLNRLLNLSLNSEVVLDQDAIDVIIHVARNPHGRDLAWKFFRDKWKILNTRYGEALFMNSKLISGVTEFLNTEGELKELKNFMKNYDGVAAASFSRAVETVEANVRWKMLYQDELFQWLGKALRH
Description: The compounds described in “1. […] The enzyme inhibitory activity of each of the compounds was evaluated by measuring the amount of the product Cyclo (His-Pro) of the enzyme reaction using a RapidFire RF 365 HTMS system (manufactured by Agilent Technologies, Inc.) connected to a triple quadrupole mass spectrometer (API 4000, manufactured by SCIEX). A membrane fraction prepared from Expi 293 cells transiently expressing human TRH-DE was used as an enzyme. The membrane fraction was suspended in 4 μg/ml of a reaction buffer (50 mM sodium phosphate (pH 7.4), 25 mM NaCl, 0.01% Triton […], and 200 μM bacitracin) and mixed with the test compound at each concentration. 10 μM […]), which was a substrate, was added, and the mixture was reacted at room temperature for 2 hours. The reaction was stopped in the same amount of a solution of acetonitrile:methanol (1:1) containing 1 μM of the stable isotope Cyclo ([…]) as an internal standard, and the supernatant was collected after centrifugation. In the RapidFire RF 365 HTMS system, a portion of the supernatant was aspirated, loaded onto a Graphic Carbon column (manufactured by Agilent Technologies, Inc.) with a buffer A (water, 0.09% formic acid, 0.01% trifluoroacetic acid) and washed with ultrapure water. Next, washing was performed with acetonitrile. The contents in the column were eluted with a buffer B (80% acetonitrile, 0.09% formic acid, 0.01% trifluoroacetic acid) and injected into a mass spectrometer for analysis. […] The ESI voltage was set to 5,500 V and the temperature was set to 650° C. For the calculation of the inhibition rate, a Ratio value corrected by dividing the product amount by the internal standard amount was used. The inhibition rate (%) was calculated by % Inhibition={1-(Ratio value of sample-Ratio value of blank)/(Ratio value of control-Ratio value of blank)}×100. The IC50 value was calculated from the concentration reactivity test at 16 points.

Row | IC50 [µM] | Structure (SMILES)
1 | 0.049 | CC1CCc2ncccc2C(=O)N1C1CC2(C1)CN(S(=O)(=O)c1ccccc1F)C2 (racemic) [Example 87]
2 | 0.147 | CC1CCc2ncc(F)cc2C(=O)N1C1CC2(C1)CN(S(=O)(=O)c1ccccc1F)C2 (racemic) [Example 88]
3 | 0.286 | CC1CCc2ncc(C(F)(F)F)cc2C(=O)N1C1CC2(C1)CN(S(=O)(=O)c1ccccc1F)C2 (racemic) [Example 89]
4 | 0.012 | CC1CCc2nc(C(F)(F)F)sc2C(=O)N1C1CC2(C1)CN(S(=O)(=O)c1ccccc1F)C2 (racemic) [Example 92]
5 | 0.004 | CC1CCc2nc(C3CC3)sc2C(=O)N1C1CC2(C1)CN(S(=O)(=O)c1ccccc1F)C2 (racemic) [Example 93]
6 | 0.004 | CC1CCc2nc(C3(F)CC3)sc2C(=O)N1C1CC2(C1)CN(S(=O)(=O)c1ccccc1F)C2 (racemic) [Example 94]
7 | 0.021 | CC1CCc2sc(C(F)(F)F)nc2C(=O)N1C1CC2(C1)CN(S(=O)(=O)c1ccccc1F)C2 (racemic) [Example 98]
8 | 0.006 | CC1CCc2nc(C3CC3)oc2C(=O)N1C1CC2(C1)CN(S(=O)(=O)c1ccccc1F)C2 (racemic) [Example 102]
9 | 0.014 | CC1c2cc(C(F)(F)F)cnc2C(=O)N(C2CC3(C2)CN(S(=O)(=O)c2ccccc2F)C3)C1C (racemic) [Example 106]
10 | 0.018 | CC1CCC2CC2C(=O)N1C1CC2(C1)CN(S(=O)(=O)c1ccccc1F)C2 (racemic) [Example 107]
11 | 0.032 | CC1C=Cc2cc(C(F)(F)F)cnc2C(=O)N1C1CC2(C1)CN(S(=O)(=O)c1ccccc1F)C2 (racemic) [Example 112]
12 | 0.026 | CC1C=Cc2ncccc2C(=O)N1C1CC2(C1)CN(S(=O)(=O)c1ccccc1F)C2 (racemic) [Example 113]
13 | 0.061 | CC1C=Cc2ncc(F)cc2C(=O)N1C1CC2(C1)CN(S(=O)(=O)c1ccccc1F)C2 (racemic) [Example 114]
14 | 0.083 | CC1C=Cc2ncc(C(F)(F)F)cc2C(=O)N1C1CC2(C1)CN(S(=O)(=O)c1ccccc1F)C2 (racemic) [Example 115]
15 | 0.025 | CC1C=Cc2nc(C(F)(F)F)sc2C(=O)N1C1CC2(C1)CN(S(=O)(=O)c1ccccc1F)C2 (racemic) [Example 118]
16 | 0.013 | CC1C=Cc2nc(C3CC3)sc2C(=O)N1C1CC2(C1)CN(S(=O)(=O)c1ccccc1F)C2 (racemic) [Example 119]
17 | 0.011 | CC1C=Cc2nc(C3(F)CC3)sc2C(=O)N1C1CC2(C1)CN(S(=O)(=O)c1ccccc1F)C2 (racemic) [Example 120]
18 | 0.021 | CC1C=Cc2nc(C3CC3)oc2C(=O)N1C1CC2(C1)CN(S(=O)(=O)c1ccccc1F)C2 (racemic) [Example 129]
19 | 0.032 | CC1C=Cc2c(noc2C2CC2)C(=O)N1C1CC2(C1)CN(S(=O)(=O)c1ccccc1F)C2 (racemic) [Example 131]
20 | 0.019 | Cc1nc2c(s1)C(=O)N(C1CC3(C1)CN(S(=O)(=O)c1ccccc1F)C3)C(C)CO2 (racemic) [Example 174]
21 | 0.018 | CCc1nc2c(s1)C(=O)N(C1CC3(C1)CN(S(=O)(=O)c1ccccc1F)C3)C(C)CO2 (racemic) [Example 177]
22 | 0.007 | CC1COc2nc(C3CC3)sc2C(=O)N1C1CC2(C1)CN(S(=O)(=O)c1ccccc1F)C2 (racemic) [Example 179]
23 | 0.112 | COc1ccc2c(n1)CCC(C)N(C1CC3(C1)CN(S(=O)(=O)c1ccccc1F)C3)C2=O (racemic) [Example 249, 6-[2-(2-fluorophenyl)sulfonyl-2-azaspiro[3.3]heptan-6-yl]-2-methoxy-7-methyl-8,9-dihydro-7H-pyrido[3,2-c]azepin-5-one]

Row | IC50 [µM] | Structure (SMILES)
24 | 0.152 | CC1CSc2nc(C(F)(F)F)ccc2C(=O)N1C1CC2(C1)CN(S(=O)(=O)c1ccccc1F)C2 (racemic) [Example 259, 4-[2-(2-fluorophenyl)sulfonyl-2-azaspiro[3.3]heptan-6-yl]-3-methyl-8-(trifluoromethyl)-2,3-dihydropyrido[3,2-f][1,4]thiazepin-5-one]
25 | 0.664 | CC1c2ccccc2C(=O)N1C1CC2(C1)CN(S(=O)(=O)c1ccccc1)C2 (racemic) [Example 267]
26 | 0.108 | CCC1c2ccccc2C(=O)N1C1CC2(C1)CN(S(=O)(=O)c1ccccc1)C2 (racemic) [Example 268]
27 | 0.134 | CC1c2cc(F)ccc2C(=O)N1C1CC2(C1)CN(S(=O)(=O)c1ccccc1F)C2 (racemic) [Example 269]
28 | 0.189 | CC1c2ccc(F)cc2C(=O)N1C1CC2(C1)CN(S(=O)(=O)c1ccccc1F)C2 (racemic) [Example 270]
29 | 0.024 | CCC1c2ccccc2C(=O)N1C1CC2(C1)CN(S(=O)(=O)c1ccccc1F)C2 (racemic) [Example 271]
30 | 0.101 | Cc1ccc(F)c(S(=O)(=O)N2CC3(CC(N4C(=O)c5ccccc5C4C)C3)C2)c1 (racemic) [Example 272]
31 | 0.063 | CCC1c2ccccc2C(=O)N1C1CC2(C1)CN(S(=O)(=O)c1cc(C)ccc1F)C2 (racemic) [Example 273]
32 | 0.151 | CCC1c2ccccc2C(=O)N1C1CC2(C1)CN(S(=O)(=O)c1cc(OC)ccc1F)C2 (racemic) [Example 274]
33 | 0.074 | CC1(O)c2cc(F)ccc2C(=O)N1C1CC2(C1)CN(S(=O)(=O)c1ccccc1F)C2 (racemic) [Example 276]
34 | 0.102 | CC1(O)c2ccc(F)cc2C(=O)N1C1CC2(C1)CN(S(=O)(=O)c1ccccc1F)C2 (racemic) [Example 277]
35 | 0.146 | CC1(O)c2cccnc2C(=O)N1C1CC2(C1)CN(S(=O)(=O)c1ccccc1F)C2 (racemic) [Example 278]
36 | 0.112 | CC1(O)c2cc(F)cnc2C(=O)N1C1CC2(C1)CN(S(=O)(=O)c1ccccc1F)C2 (racemic) [Example 279]
37 | 0.089 | Cc1cnc2c(c1)C(C)(O)N(C1CC3(C1)CN(S(=O)(=O)c1ccccc1F)C3)C2=O (racemic) [Example 280]
38 | 0.12 | COc1ccc2c(n1)C(=O)N(C1CC3(C1)CN(S(=O)(=O)c1ccccc1F)C3)C2(C)O (racemic) [Example 281]
39 | 0.124 | CC1(O)c2cnccc2C(=O)N1C1CC2(C1)CN(S(=O)(=O)c1ccccc1F)C2 (racemic) [Example 282]
40 | 0.537 | CC1(O)c2ccccc2C(=O)N1C1CC2(C1)CN(S(=O)(=O)c1ccccc1)C2 (racemic) [Example 284]
41 | 0.955 | CCC1(O)c2ccccc2C(=O)N1C1CC2(C1)CN(S(=O)(=O)c1ccccc1)C2 (racemic) [Example 285]
42 | 0.213 | CCC1(O)c2ccccc2C(=O)N1C1CC2(C1)CN(S(=O)(=O)c1ccccc1F)C2 (racemic) [Example 286]
43 | 0.09 | Cc1ccc(F)c(S(=O)(=O)N2CC3(CC(N4C(=O)c5ccccc5C4(C)O)C3)C2)c1 (racemic) [Example 287]
44 | 0.336 | CCC1(O)c2ccccc2C(=O)N1C1CC2(C1)CN(S(=O)(=O)c1cc(C)ccc1F)C2 (racemic) [Example 288]
45 | 0.338 | CCC1(O)c2ccccc2C(=O)N1C1CC2(C1)CN(S(=O)(=O)c1cc(OC)ccc1F)C2 (racemic) [Example 289]
46 | 0.215 | CC1c2cccnc2C(=O)N1C1CC2(C1)CN(S(=O)(=O)c1ccccc1F)C2 (racemic) [Example 291]

— patent US20260132127A1, “NOVEL SPIRO COMPOUND” (MITSUBISHI TANABE PHARMA CORPORATION, priority 2021, published 2026)
